The values below come from ChEMBL document CHEMBL1909046, “DrugMatrix in vitro pharmacology data”.

For experiment [1], the target named is Sodium-dependent dopamine transporter (Homo sapiens, UniProt Q01959). The experiment can be described thus: DRUGMATRIX: Dopamine Transporter radioligand binding (ligand: [125I] RTI-55). Type of experiment: cell membranes, CHO-K1, Membrane. The following applies: Not Active = under 50% inhibition at 10 µM.
The target in experiment [2] is T1, Angiotensin-converting enzyme (Oryctolagus cuniculus, UniProt P12822).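 Also: enzymatic inhibition of angiotensin-converting enzyme measured with FAPGG as the substrate; in other assays of this panel Not Active means under 50% inhibition at 10 µM.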
T1 sequence (P12822 whole entry): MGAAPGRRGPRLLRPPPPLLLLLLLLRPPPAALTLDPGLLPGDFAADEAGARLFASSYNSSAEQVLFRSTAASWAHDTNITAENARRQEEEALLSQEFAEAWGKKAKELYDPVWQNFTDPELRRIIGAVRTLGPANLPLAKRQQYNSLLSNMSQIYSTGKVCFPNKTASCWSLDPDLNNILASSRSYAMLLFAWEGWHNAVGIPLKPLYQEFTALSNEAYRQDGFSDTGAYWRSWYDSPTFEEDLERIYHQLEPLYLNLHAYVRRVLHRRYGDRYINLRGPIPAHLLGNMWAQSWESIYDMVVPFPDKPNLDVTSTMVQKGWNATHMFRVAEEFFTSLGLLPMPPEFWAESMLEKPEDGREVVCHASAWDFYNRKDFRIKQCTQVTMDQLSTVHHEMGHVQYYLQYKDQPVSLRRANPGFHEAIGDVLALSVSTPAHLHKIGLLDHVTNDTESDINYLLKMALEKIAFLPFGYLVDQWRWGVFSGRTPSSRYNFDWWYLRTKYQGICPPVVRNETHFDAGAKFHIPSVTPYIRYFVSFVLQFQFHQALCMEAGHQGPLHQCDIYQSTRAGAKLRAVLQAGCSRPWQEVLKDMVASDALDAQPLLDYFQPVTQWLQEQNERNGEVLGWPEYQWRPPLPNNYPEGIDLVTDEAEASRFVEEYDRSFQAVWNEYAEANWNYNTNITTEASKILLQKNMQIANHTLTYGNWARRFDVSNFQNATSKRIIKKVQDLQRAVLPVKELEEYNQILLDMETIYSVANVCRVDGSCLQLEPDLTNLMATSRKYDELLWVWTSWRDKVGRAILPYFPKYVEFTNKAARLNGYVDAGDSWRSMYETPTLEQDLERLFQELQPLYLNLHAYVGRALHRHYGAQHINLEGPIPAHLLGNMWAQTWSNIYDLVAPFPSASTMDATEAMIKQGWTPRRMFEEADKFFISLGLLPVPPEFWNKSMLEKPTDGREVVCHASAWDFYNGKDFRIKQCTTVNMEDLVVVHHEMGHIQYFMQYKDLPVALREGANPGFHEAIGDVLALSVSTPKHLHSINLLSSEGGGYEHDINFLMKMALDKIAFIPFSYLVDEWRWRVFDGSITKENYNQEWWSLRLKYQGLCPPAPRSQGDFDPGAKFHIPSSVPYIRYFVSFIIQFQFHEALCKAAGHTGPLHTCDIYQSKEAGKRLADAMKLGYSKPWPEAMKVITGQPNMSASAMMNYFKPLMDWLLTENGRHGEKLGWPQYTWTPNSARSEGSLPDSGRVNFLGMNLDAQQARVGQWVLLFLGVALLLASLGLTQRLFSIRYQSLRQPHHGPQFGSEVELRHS
Type of experiment: tissue-based, Lung.

Experiment [3] can be described thus: DRUGMATRIX: Purinergic P2X radioligand binding (ligand: [3H] alpha, beta-Methylene-ATP). The settings on record: Not Active = under 50% inhibition at 10 µM. Type of experiment: cell membranes, Oryctolagus cuniculus, New Zealand albino, Urinary bladder, Membrane.
Experiment [4] has as its target T2, Alpha-1A adrenergic receptor (Rattus norvegicus, UniProt P43140).
T2 sequence (P43140 whole entry): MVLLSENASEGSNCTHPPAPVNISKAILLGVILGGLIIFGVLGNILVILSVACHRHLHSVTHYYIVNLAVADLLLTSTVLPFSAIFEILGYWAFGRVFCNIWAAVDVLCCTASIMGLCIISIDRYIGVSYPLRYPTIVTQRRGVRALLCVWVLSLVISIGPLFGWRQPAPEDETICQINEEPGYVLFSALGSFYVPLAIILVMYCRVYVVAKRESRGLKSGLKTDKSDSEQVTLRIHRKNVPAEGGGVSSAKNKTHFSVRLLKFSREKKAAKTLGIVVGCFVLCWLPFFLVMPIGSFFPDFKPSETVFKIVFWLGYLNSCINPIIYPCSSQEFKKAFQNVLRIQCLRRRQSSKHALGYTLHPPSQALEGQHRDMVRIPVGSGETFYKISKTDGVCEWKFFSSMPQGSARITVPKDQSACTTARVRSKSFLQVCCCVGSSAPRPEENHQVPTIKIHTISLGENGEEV
The experiment can be described thus: DRUGMATRIX: Alpha-1A adrenergic receptor radioligand binding (ligand: prazosin). In kind it is cell membranes, Wistar, Submaxillary gland, Membrane. The following applies: Not Active = under 50% inhibition at 10 µM; for Ki: read-out: Ki.

A further experiment has as its target T3, Glucocorticoid receptor (Homo sapiens, UniProt P04150). Also: in other assays of this panel Not Active means under 50% inhibition at 10 µM.
T3 sequence (P04150 whole entry): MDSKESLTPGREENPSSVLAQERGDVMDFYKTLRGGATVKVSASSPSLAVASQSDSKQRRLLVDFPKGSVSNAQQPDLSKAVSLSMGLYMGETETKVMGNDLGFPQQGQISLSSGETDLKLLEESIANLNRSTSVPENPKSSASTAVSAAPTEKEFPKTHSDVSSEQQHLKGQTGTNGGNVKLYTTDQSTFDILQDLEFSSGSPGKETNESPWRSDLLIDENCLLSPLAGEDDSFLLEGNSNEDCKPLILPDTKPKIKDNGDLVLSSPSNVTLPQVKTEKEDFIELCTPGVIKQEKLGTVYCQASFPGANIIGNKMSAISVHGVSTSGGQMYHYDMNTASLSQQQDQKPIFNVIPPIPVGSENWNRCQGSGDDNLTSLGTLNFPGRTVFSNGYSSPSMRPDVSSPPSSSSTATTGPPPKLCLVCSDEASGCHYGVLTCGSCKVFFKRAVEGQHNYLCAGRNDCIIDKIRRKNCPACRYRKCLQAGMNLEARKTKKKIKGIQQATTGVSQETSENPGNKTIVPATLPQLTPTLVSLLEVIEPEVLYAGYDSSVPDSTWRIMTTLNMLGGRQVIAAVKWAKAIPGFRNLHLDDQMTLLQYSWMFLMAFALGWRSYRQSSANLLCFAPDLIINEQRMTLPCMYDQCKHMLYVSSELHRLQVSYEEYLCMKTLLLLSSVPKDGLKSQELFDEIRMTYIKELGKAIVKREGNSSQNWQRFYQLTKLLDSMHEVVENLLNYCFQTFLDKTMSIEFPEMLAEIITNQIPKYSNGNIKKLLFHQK
The following applies: hela s3.

Chain of Sodium-dependent dopamine transporter (Q01959 whole entry): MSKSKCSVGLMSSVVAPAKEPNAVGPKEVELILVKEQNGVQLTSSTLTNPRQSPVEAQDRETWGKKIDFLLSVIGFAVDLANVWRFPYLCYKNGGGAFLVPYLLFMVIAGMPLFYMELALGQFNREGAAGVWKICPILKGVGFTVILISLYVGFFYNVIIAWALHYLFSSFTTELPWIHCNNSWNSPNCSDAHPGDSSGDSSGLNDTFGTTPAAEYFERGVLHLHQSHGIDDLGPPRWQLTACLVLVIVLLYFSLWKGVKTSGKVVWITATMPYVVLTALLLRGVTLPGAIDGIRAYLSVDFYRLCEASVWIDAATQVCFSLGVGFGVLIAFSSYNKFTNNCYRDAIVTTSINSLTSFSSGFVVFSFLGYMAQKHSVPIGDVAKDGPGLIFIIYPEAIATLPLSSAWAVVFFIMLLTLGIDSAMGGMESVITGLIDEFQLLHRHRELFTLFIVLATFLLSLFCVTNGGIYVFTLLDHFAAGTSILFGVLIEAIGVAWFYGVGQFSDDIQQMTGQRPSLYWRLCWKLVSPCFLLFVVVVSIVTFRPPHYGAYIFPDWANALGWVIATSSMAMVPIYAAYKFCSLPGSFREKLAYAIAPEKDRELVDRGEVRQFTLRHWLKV

As usually defined, the IC50 is the concentration needed to halve the response being measured. As a reminder, the Ki is a dissociation constant, usually derived from enzyme kinetics or from competition with a known ligand. On to `COc1ccc(CCN(C)CCCC(C#N)(c2ccc(OC)c(OC)c2)C(C)C)cc1OC` (configuration not stated), for which the half-maximal inhibitory concentration (IC50) result in experiment [1] (cho-k1), in experiment [2] and in experiment [3] was “Not Active” each time. Further, in experiment [3], the Ki entry is recorded as “Not Active”.
As for `CC(C)Cc1ccc([C@@H](C)C(=O)O)cc1` [(R)-IBUPROPHEN], the IC50 entry (in experiment [4]; in experiment [1] (cho-k1); in experiment [2]; in experiment [3]; on Glucocorticoid receptor) was “Not Active” each time. For the same molecule, the Ki result in experiment [3] is given as “Not Active”.
For the molecule `CC(C)NCC(O)c1ccc(O)c(O)c1` (configuration not stated) [ISOPROTERENOL], the IC50 entry (in experiment [4]; in experiment [1] (cho-k1); in experiment [2]; in experiment [3]; against Glucocorticoid receptor) was “Not Active” in each case. The Ki entry in experiment [3] was “Not Active”.
Consider `NC(=O)N1C(=O)/C(=C(\O)c2cccs2)c2cc(Cl)ccc21` [TENIDAP], for which the half-inhibitory concentration (IC50) entry (in experiment [4]; in experiment [1] (cho-k1); in experiment [2]; in experiment [3]; against Glucocorticoid receptor) was “Not Active” throughout. In addition, the Ki entry in experiment [3] is listed as “Not Active”.
For the molecule `NC1CCN(c2nc3c(cc2F)c(=O)c(C(=O)O)cn3-c2ccc(F)cc2F)C1` (configuration not stated) [TOSUFLOXACIN], the half-maximal inhibitory concentration (IC50) result (in experiment [4]; in experiment [1] (cho-k1); in experiment [2]; in experiment [3]; against Glucocorticoid receptor) was “Not Active” each time. In addition, the Ki entry in experiment [3] is listed as “Not Active”.
For the molecule `N#Cc1ccc(C(c2ccc(C#N)cc2)n2cncn2)cc1` [LETROZOLE], the concentration for half-maximal inhibition (IC50) result (in experiment [4]; in experiment [1] (cho-k1); in experiment [2]; in experiment [3]; at Glucocorticoid receptor) was “Not Active” each time. For the same molecule, in experiment [3], the Ki entry was “Not Active”.
`CCN(CC)CCOc1ccc(/C(=C(/Cl)c2ccccc2)c2ccccc2)cc1` [ENCLOMIPHENE]: the IC50 entry (in experiment [4]; in experiment [2]; on Glucocorticoid receptor) was “Not Active” in each case.
In the case of `Cn1c(=O)c2nc[nH]c2n(C)c1=O.O` [THEOPHYLLINE], the IC50 result in experiment [4], in experiment [1] (cho-k1), in experiment [2] and in experiment [3] was “Not Active” throughout. The Ki result in experiment [3] is reported as “Not Active”.
With `CN[C@H]1CC[C@@H](c2ccc(Cl)c(Cl)c2)c2ccccc21` [SERTRALINE], the IC50 entry (in experiment [4]; in experiment [2]; against Glucocorticoid receptor) was “Not Active” throughout.
With `CN(C)CCOC(c1ccccc1)c1ccccc1` [DIPHENHYDRAMINE], the IC50 result (in experiment [4]; in experiment [1] (cho-k1); in experiment [2]; against Glucocorticoid receptor) was “Not Active” in each case.
For the molecule `CC[C@@H](C(=O)[C@@H](C)[C@@H](O)[C@H](C)[C@@H]1O[C@@H]([C@@H](CC)C(=O)O)CC[C@@H]1C)[C@H]1O[C@]2(C=C[C@@H](O)[C@]3(CC[C@@](C)([C@H]4CC[C@](O)(CC)[C@H](C)O4)O3)O2)[C@H](C)C[C@@H]1C` [SALINOMYCIN], the IC50 entry in experiment [4], in experiment [1] (cho-k1), in experiment [2] and in experiment [3] was “Not Active” throughout. Also, the Ki result in experiment [3] is listed as “Not Active”.
Consider `Clc1ccccc1CN1CCc2sccc2C1` [TICLOPIDINE], for which the IC50 result in experiment [4], in experiment [1] (cho-k1), in experiment [2] and in experiment [3] was “Not Active” throughout. Also, the Ki entry in experiment [3] is on record as “Not Active”.
For `Fc1ccc(C(c2ccc(F)cc2)N2CCN(C/C=C/c3ccccc3)CC2)cc1` [FLUNARIZINE], the IC50 is 1090 nM in experiment [4] (read-out: IC50), 584 nM in experiment [1] (read-out: IC50), “Not Active” in experiment [2] and “Not Active” against Glucocorticoid receptor. Besides, the results for the Ki in experiment [4] and in experiment [1] (read-out: Ki) were 440 nM and 464 nM, respectively.
For the molecule `O=C(Oc1ccccc1C(=O)O)c1ccccc1O` [SALSALATE], the IC50 result in experiment [4], in experiment [1] (cho-k1), in experiment [2] and in experiment [3] was “Not Active” each time. In experiment [3], the Ki result is on record as “Not Active”.
For `O.O.O.O.O.O.[Cl-].[Cl-].[Sr+2]` [STRONTIUM CHLORIDE HEXAHYDRATE], the IC50 result in experiment [4], in experiment [1] (cho-k1), in experiment [2] and in experiment [3] was “Not Active” in each case. For the same molecule, the Ki result in experiment [3] was “Not Active”.
Regarding `CNCCC(Oc1ccc(C(F)(F)F)cc1)c1ccccc1` (configuration not stated) [FLUOXETINE], the IC50 result (in experiment [4]; in experiment [1] (cho-k1); in experiment [2]; at Glucocorticoid receptor) was “Not Active” in each case.
For `Cc1cccc(C)c1OCC(C)N` (configuration not stated) [MEXILETINE], the IC50 result in experiment [4], in experiment [1] (cho-k1), in experiment [2] and in experiment [3] was “Not Active” throughout. In experiment [3], the Ki entry is “Not Active”.
With `Cc1ccc(NC(=O)c2ccc(CN3CCN(C)CC3)cc2)cc1Nc1nccc(-c2cccnc2)n1` [IMATINIB], the IC50 result (in experiment [4]; in experiment [1] (cho-k1); in experiment [2]; against Glucocorticoid receptor) was “Not Active” each time.
With `Clc1ccc(COC(Cn2ccnc2)c2ccc(Cl)cc2Cl)cc1` (configuration not stated) [ECONAZOLE], the results for the IC50 (in experiment [4] (read-out: IC50); in experiment [2]; against Glucocorticoid receptor) were 21200 nM, “Not Active” and “Not Active”, respectively. Besides, the Ki in experiment [4] is 8570 nM.
Consider `C[C@H]1C[C@@H]2[C@H]([C@@H](O)C[C@@]3(C)[C@H]2CC[C@]3(O)C(=O)CO)[C@@]2(C)C=CC(=O)C=C12` [METHYLPREDNISOLONE], for which the IC50 entry in experiment [4], in experiment [1] (cho-k1), in experiment [2] and in experiment [3] was “Not Active” throughout. In experiment [3], the Ki entry is recorded as “Not Active”.
With `COc1cc2nc(N3CCN(C(=O)C4CCCO4)CC3)nc(N)c2cc1OC` (configuration not stated) [TERAZOSIN], the IC50 result (in experiment [1] (cho-k1); in experiment [2]; in experiment [3]; at Glucocorticoid receptor) was “Not Active” in each case. Moreover, the Ki result in experiment [3] is given as “Not Active”.
